In patent US9439878B2, “Use of lumefantrine and related compounds in the treatment of cancer” (priority 2010, dated 2016):

Legend:
[1] = system: Ba/F3 cells expressing wild-type BCR-ABL (p210); experiment: MTT cell viability assay, Ba/F3 cells expressing wild-type (p210) Bcr-Abl; format: cell-based, Murine; details: for potency relative to chloroquine (cell viability): chloroquine 25 μM control
Text: (§1) A study conducted through the independent Cancer Therapy & Research Center, Institute for Drug Development at the University of Texas Health Science Center at San Antonio, Tex., evaluated lumefantrine as an autophagy inhibitor (i.e., “Lumefantrine Study”). […] 1; 110(1):313-22. Epub 2007 Mar. 15. PMID: 17363733”. Murine Ba/F3 cells that stably express wild-type BCR-ABL (p210) or the T315I mutated version of BCR-ABL, which confers resistance to imatinib and nilotinib were utilized for this study. Cells were propagated at 37° C. in a humidified atmosphere containing 5% carbon dioxide. Cell viability was determined using the MTT assay. This colorimetric procedure measures conversion of the MTT reagent (a tetrazoleum salt) to formazan by mitochondria. Formazan production was quantified by spectrophotometric measurement at 570 nm and was proportional to viable cell number. Cells were cultured and treated with different concentrations of the agent(s) for 48 hours. Following treatment, 50 μl of MTT was added to each well and allowed to incubate for 1-3 hours at 37° C. Each well was aspirated and 200 μl of DMSO was added to each well to dissolve the formazan. […] Lumefantrine was tested as potential autophagy inhibitor at final concentrations between one to forty micromolar. […] The ER stressor drugs tested and their final concentrations were GleevecTM (imatinib, Novartis, final 350 nM), […] (nilotinib, Novartis, final 35 nM) or ZolinzaTM (suberoylanilide hydroxamic acid, Merck, final 1 μM).

[2] = system: Ba/F3 cells expressing T315I mutated BCR-ABL; experiment: MTT cell viability assay, Ba/F3 cells expressing mutant Bcr-Abl (T315I); format: cell-based, Murine; details: for potency relative to chloroquine (cell viability): chloroquine 25 μM control
Text: as §1

`CCCCN(CCCC)CC(O)c1cc(Cl)cc2c1-c1ccc(Cl)cc1/C2=C\c1ccc(Cl)cc1` (racemic) [lumefantrine, 2-(dibutylamino)-1-[(9E)-2,7-dichloro-9-(4-chlorobenzylidene)-9H-fluoren-4-yl]ethanol] was tested, and the “potency relative to chloroquine (cell viability)” value (“potency relative to chloroquine” below) ([1]; SAHA experiment, Ba/F3 p210) was “equipotent with chloroquine”, the “potency relative to chloroquine” value ([1]; imatinib experiment, Ba/F3 p210) was “equipotent with chloroquine” and the “cell viability (MTT, OD 570 nm)” value ([1]; lumefantrine 1-40 micromolar, with and without SAHA 1 μM, 48 hours, Ba/F3 p210 (FIG. 2)) was “dose-dependent reductions in the cell viability”. The “potency relative to chloroquine” value ([1]; nilotinib experiment, Ba/F3 p210) was “equipotent with chloroquine”, the “enhancement of suberoylanilide hydroxamic acid (SAHA) effect on proliferation/viability” value ([1]; with SAHA 1 μM, 48 hours, Ba/F3 p210) was “enhanced the suberoylanilide hydroxamic acid drug response” and the “augmentation of imatinib effects on cell viability” value ([1]; with imatinib 350 nM, 48 hours, Ba/F3 p210 (FIG. 4)) was “augments the imatinib effects”. The “augmentation of nolotinb effects on cell viability” value ([1]; with nilotinib 35 nM, 48 hours, Ba/F3 p210 (FIG. 6)) was “augments the nolotinb effects”, the “potency relative to chloroquine” value ([2]; SAHA experiment, Ba/F3 T315I) was “equipotent with chloroquine” and the “potency relative to chloroquine” value ([2]; imatinib experiment, Ba/F3 T315I) was “equipotent with chloroquine”. For the same molecule, the “cell viability (MTT, OD 570 nm)” value ([2]; lumefantrine 1-40 micromolar, with and without SAHA 1 μM, 48 hours, Ba/F3 T315I (FIG. 3)) was “dose-dependent reductions in the cell viability”, the “potency relative to chloroquine” value ([2]; nilotinib experiment, Ba/F3 T315I) was “equipotent with chloroquine” and the “enhancement of suberoylanilide hydroxamic acid (SAHA) effect on proliferation/viability” value ([2]; with SAHA 1 μM, 48 hours, Ba/F3 T315I) was “enhanced the suberoylanilide hydroxamic acid drug response”. The “augmentation of imatinib effects on cell viability” value ([2]; with imatinib 350 nM, 48 hours, Ba/F3 T315I (FIG. 5)) was “the only effects on viability are those generated by lumefantrine alone” and the “augmentation of nolotinb effects on cell viability” value ([2]; with nilotinib 35 nM, 48 hours, Ba/F3 T315I (FIG. 7)) was “the only effects on viability are those generated by lumefantrine alone”.
